≈ marks a conversion by molar mass, not a printed value.
Experiments:
[1] = system: Micrococcus luteus IFO 12708; assay: Minimal inhibitory concentration, standard method of Japan Society of Chemotherapy; format: cell-based; conditions: IFO12708
[2] = system: Bacillus subtilis IFO 3134; assay: as above; format: cell-based; conditions: IFO3134
[3] = system: Staphylococcus aureus IFO 12732; assay: as above; format: cell-based; conditions: IFO12732
[4] = system: Escherichia coli IFO 12734; assay: as above; format: cell-based; conditions: IFO12734
[5] = system: Klebsiella pneumoniae IFO 3512; assay: as above; format: cell-based; conditions: IFO3512
[6] = system: Mycobacterium smegmatis ATCC 607; assay: as above; format: cell-based; conditions: Mycolicibacterium smegmatis, ATCC607
[7] = system: Mycobacterium tuberculosis H37 Rv; assay: Minimal inhibitory concentration against a tubercle bacillus; conditions: Kirchner liquid medium containing 10% bovine serum, 37° C., 4 weeks
[8] = system: Mycobacterium tuberculosis H37 Rv; assay: Survival of mice infected with tuberculosis, groups of 10 (Tables 4 and 5); conditions: oral, 200 μg/mouse; for dead mice: fortieth day
[9] = system: Mycobacterium tuberculosis H37 Rv; assay: Therapeutic effect on mice infected with tuberculosis, groups of 20 (FIG. 1); conditions: oral, 200 μg/mouse once a day, six days a week

Row | Structure (SMILES) | MIC [1] [mg/L] | MIC [2] [mg/L] | MIC [3] [mg/L] | MIC [4] [mg/L] | MIC [5] [mg/L] | MIC [6] [mg/L] | Minimal inhibitory concentration [7] [mg/L] | Survival rate ([8]; Table 4, control 30%) [%] | dead mice ([8]; Table 4 test) | Survival rate ([8]; Table 5, control 0%) [%] | dead mice ([8]; Table 5 test) | therapeutic effect as compared with rifampicin (and derivative A) [9]
1 | COC1C=COC2(C)Oc3c(C)c(O)c4c(=O)c(c5oc6cc(N7CCN8CCCC8C7)cc(O)c6nc-5c4c3C2=O)NC(=O)C(C)=CC=CC(C)C(O)C(C)C(O)C(C)C(OC(C)=O)C1C (stereo not drawn) [Derivative No. 10] | ≤ 0.02 | ≤ 0.02 | ≤ 0.02 | 10 (≈ 10.8 µM) | 10 (≈ 10.8 µM) | 2.5 (≈ 2.7 µM) | 0.15 (≈ 0.162 µM) | 100 | there was not observed any dead mouse | – | – | –
2 | CO[C@H]1/C=C/O[C@@]2(C)Oc3c(C)c(O)c4c(O)c(c(/C=N/N5CCN(C)CC5)c(O)c4c3C2=O)NC(=O)/C(C)=C\C=C\[C@H](C)[C@H](O)[C@@H](C)[C@@H](O)[C@@H](C)[C@H](OC(C)=O)[C@@H]1C [Rifampicin, reference compound] | – | – | – | – | – | – | 0.6 (≈ 0.729 µM) | 80 | – | 40 | – | –
3 | COC1C=COC2(C)Oc3c(C)c(O)c4c(=O)c(c5oc6cc(N7CCN(C(C)(C)C)CC7)cc(O)c6nc-5c4c3C2=O)NC(=O)C(C)=CC=CC(C)C(O)C(C)C(O)C(C)C(OC(C)=O)C1C (stereo not drawn) [Derivative No. 6] | ≤ 0.02 | ≤ 0.02 | ≤ 0.02 | > 10 | > 10 | 1.25 (≈ 1.33 µM) | 0.008 (≈ 0.0085 µM) | – | – | 100 | there was not observed any dead mouse | –
4 | COC1C=COC2(C)Oc3c(C)c(O)c4c(=O)c(c5oc6cc(N7CCN(CCC(C)C)CC7)cc(O)c6nc-5c4c3C2=O)NC(=O)C(C)=CC=CC(C)C(O)C(C)C(O)C(C)C(OC(C)=O)C1C (stereo not drawn) [Derivative No. 5] | ≤ 0.02 | 0.16 (≈ 0.168 µM) | ≤ 0.02 | > 10 | > 10 | 5 (≈ 5.23 µM) | 0.07 (≈ 0.0733 µM) | 100 | there was not observed any dead mouse | – | – | –
5 | COC1C=COC2(C)Oc3c(C)c(O)c4c(=O)c(c5oc6cc(N7CCN(CC(C)C)CC7)cc(O)c6nc-5c4c3C2=O)NC(=O)C(C)=CC=CC(C)C(O)C(C)C(O)C(C)C(OC(C)=O)C1C (stereo not drawn) [Derivative No. 2] | ≤ 0.02 | 0.04 (≈ 0.0425 µM) | ≤ 0.02 | > 10 | > 10 | 2.5 (≈ 2.66 µM) | 0.017 (≈ 0.0181 µM) | 100 | there was not observed any dead mouse | – | – | excellent therapeutic effect as compared with rifampicin
6 | COC1C=COC2(C)Oc3c(C)c(O)c4c(=O)c(c5oc6cc(N7CCN(CC8CC8)CC7)cc(O)c6nc-5c4c3C2=O)NC(=O)C(C)=CC=CC(C)C(O)C(C)C(O)C(C)C(OC(C)=O)C1C (stereo not drawn) [Derivative No. 3] | ≤ 0.02 | ≤ 0.02 | ≤ 0.02 | > 10 | > 10 | 2.5 (≈ 2.66 µM) | 0.017 (≈ 0.0181 µM) | 100 | there was not observed any dead mouse | – | – | –
7 | CCc1c(N2CCCC2)ccc2nc3c4c5c6c(C)c(O)c4c(=O)c(c-3oc12)NC(=O)C(C)=CC=CC(C)C(O)C(C)C(O)C(C)C(OC(C)=O)C(C)C(OC)C=COC(C)(O6)C5=O (stereo not drawn) [derivative C] | – | – | – | – | – | – | – | – | – | – | – | inferior to rifampicin
8 | CCCCN1CCN(c2cc(O)c3nc4c5c6c7c(C)c(O)c5c(=O)c(c-4oc3c2)NC(=O)C(C)=CC=CC(C)C(O)C(C)C(O)C(C)C(OC(C)=O)C(C)C(OC)C=COC(C)(O7)C6=O)CC1 (stereo not drawn) [Derivative No. 1] | ≤ 0.02 | ≤ 0.02 | ≤ 0.02 | > 10 | > 10 | 5 (≈ 5.31 µM) | 0.035 (≈ 0.0372 µM) | – | – | 100 | there was not observed any dead mouse | –
9 | C=CCCN1CCN(c2cc(O)c3nc4c5c6c7c(C)c(O)c5c(=O)c(c-4oc3c2)NC(=O)C(C)=CC=CC(C)C(O)C(C)C(O)C(C)C(OC(C)=O)C(C)C(OC)C=COC(C)(O7)C6=O)CC1 (stereo not drawn) [Derivative No. 8] | ≤ 0.02 | ≤ 0.02 | ≤ 0.02 | > 10 | > 10 | 2.5 (≈ 2.66 µM) | 0.017 (≈ 0.0181 µM) | – | – | 100 | there was not observed any dead mouse | –
10 | CCC(C)N1CCN(c2cc(O)c3nc4c5c6c7c(C)c(O)c5c(=O)c(c-4oc3c2)NC(=O)C(C)=CC=CC(C)C(O)C(C)C(O)C(C)C(OC(C)=O)C(C)C(OC)C=COC(C)(O7)C6=O)CC1 (stereo not drawn) [Derivative No. 4] | ≤ 0.02 | ≤ 0.02 | ≤ 0.02 | > 10 | > 10 | 1.25 (≈ 1.33 µM) | 0.017 (≈ 0.0181 µM) | – | – | 100 | there was not observed any dead mouse | –
11 | COC1C=COC2(C)Oc3c(C)c(O)c4c(=O)c(c5oc6cc(N7CCN(CC=C(C)C)CC7)cc(O)c6nc-5c4c3C2=O)NC(=O)C(C)=CC=CC(C)C(O)C(C)C(O)C(C)C(OC(C)=O)C1C (stereo not drawn) [Derivative No. 9] | ≤ 0.02 | 0.08 (≈ 0.0839 µM) | ≤ 0.02 | > 10 | > 10 | 2.5 (≈ 2.62 µM) | 0.035 (≈ 0.0367 µM) | 100 | there was not observed any dead mouse | – | – | –
12 | C=CCN1CCN(c2cc(O)c3nc4c5c6c7c(C)c(O)c5c(=O)c(c-4oc3c2)NC(=O)C(C)=CC=CC(C)C(O)C(C)C(O)C(C)C(OC(C)=O)C(C)C(OC)C=COC(C)(O7)C6=O)CC1 (stereo not drawn) [Derivative No. 7] | ≤ 0.02 | 0.04 (≈ 0.0432 µM) | ≤ 0.02 | > 10 | > 10 | 2.5 (≈ 2.7 µM) | 0.035 (≈ 0.0378 µM) | 100 | there was not observed any dead mouse | – | – | –
13 | COC1C=COC2(C)Oc3c(C)c(O)c4c(=O)c(c5oc6cc(N7CCCCC7)ccc6nc-5c4c3C2=O)NC(=O)C(C)=CC=CC(C)C(O)C(C)C(O)C(C)C(OC(C)=O)C1C (stereo not drawn) [derivative B] | – | – | – | – | – | – | – | – | – | – | – | inferior to rifampicin

From patent publication US4983602A, “3'-hydroxybenzoxazinorifamycin derivative, process for preparing the same and antibacterial agent containing the same” (Kanegafuchi Kagaku Kogyo Kabushiki Kaisha, priority 1988, dated 1991)
